Results on two compounds are retold here after EP0170121A1, “2-Hydroxy-3-aryloxypropyl or 2-hydroxy-2-benzofuranyl ethyl tertiary amine having an anti-hyperglycaemic and/or anti-obesity activity” (BEECHAM GROUP PLC, priority 1984, dated 1986).

The subject of one experiment is Female CD1 mice. In words: Effect on energy expenditure of mice (oxygen consumption, oral dosing). It is filed as in vivo. Conditions: p.o. in water, percentage of the rate of energy expenditure of the mice dosed with water, dose differs per compound (Dose mg/kg p.o.); for Mean Energy Expenditure (0-3h): 0-3h after dosing; for Mean Energy Expenditure (0-21h): 0-21h after dosing. The procedure: Female CD1 mice each weighing approximately 24 g were given food and water ad lib before and during the experiment. The compounds were dissolved in water and these solutions were administered orally to each of 12 mice. A further 12 mice were dosed orally with water. The mice were placed in groups of threes in boxes through which air was drawn and the oxygen content of the air leaving the boxes was measured. The energy expenditure of the mice was calculated for 3 and 21 hours after dosing from the volume of air leaving the boxes and its oxygen content, following the principles described by J.B. de V. Weir, J. Physiol. (London) 109, 1-9 (1949). The results are expressed as a percentage of the rate of energy expenditure of the mice dosed with water.

For a further experiment, the system named is Male Sprague-Dawley rats. In words: Effect on energy expenditure of rats (oxygen consumption, oral dosing). The settings on record: deprived of food, p.o. in water, percentage of the rate of energy expenditure of the rats dosed with water, dose differs per compound (Dose mg/kg p.o.); for Mean Energy Expenditure (0-3h): 0-3h after dosing; for Mean Energy Expenditure (0-21h): 0-21h after dosing. It counts as in vivo. The procedure: Male Sprague-Dawley rats each weighing between 170-200 g were deprived of food for 16 hours before, and during the experiment. Water was provided ad lib at all times. The compounds were administered orally in water to 3 or 4 rats. A further 4 rats were dosed orally with water. The rats were placed in boxes through which air was drawn and the oxygen content of the air leaving the boxes was measured. The energy expenditure of the rats was calculated for 3 hours and for 21 hours after dosing from the volume of air leaving the boxes and its oxygen content, following the principles described by J.B. de V. Weir, J. Physiol. (London) 109, 1-9 (1949). The results are expressed as a percentage of the rate of energy expenditure of the rats dosed with water.

A further experiment has as its system Isolated Rat Atria. Put plainly: Effect of compounds on isolated rat atria (rate of right atrium, tension of left atrium). The settings on record: Krebs solution 32°C, up to 3x10-^5M; for effect on tension (electrically paced left atrium): isolated rat left atrium; for effect on rate (spontaneously beating right atrium): isolated rat right atrium. It counts as cell-based, Sprague-Dawley male rats.

Another experiment deals with Female BALB/c mice. In words: Anti-obesity activity: weight of parametrial fat pads after 3 days of compound in the diet. It counts as in vivo. The settings on record: compound in diet for 3 days, dose differs per compound (Dose mg/kg diet), mean of 9 values. The procedure:
Female BALB/c mice were trained to feed on powdered oxoid for 1 week. They were then housed in threes and the compound under study was added to the diet for 3 days. Food was removed at 09.00h and the mice were killed at 11.00h. The parametrial fat pads were weighed as pairs. The result is a mean of 9 values.

For another experiment, the system named is Female CFLP mice. Put plainly: Hypoglycaemic activity: subcutaneous glucose load, area under blood glucose curve. It counts as in vivo. The settings on record: female CFLP mice fasted 24 hours; compound orally 30 minutes before glucose 1 g/kg s.c.; 2 hour period; versus control mice given water; dose differs per compound (Dose µmol/kg). The procedure: Female CFLP mice, weighing approximately 25 g, were fasted for 24 hours prior to the study. The compounds under study were administered orally as an aqueous solution to each of 6 mice. 30 minutes later a blood sample (20 µl) was obtained from the tail for the analysis of blood glucose. Immediately after taking this blood sample, glucose (1 g/kg body weight) was administered subcutaneously to each mouse. 6 mice were given water as a control. Blood samples were then obtained from each mouse at 30 minute intervals for 120 minutes.
Compounds that produced a significant (p<0.05) reduction of blood glucose, compared with control mice given water, at any time interval, were considered active. The area under the blood glucose curve over the 2 hour period after the administration of the glucose was calculated for each compound and compared with the value for control animals.

Each structure is given as a SMILES string. Structures can show the parent of a compound that is named as a salt.

Procedure for Isolated Rat Atria: Sprague-Dawley male rats (300-400 g) are killed and the right and left atria dissected out independently and mounted on a combined tissue holder/electrode. The tissues are then immersed in a glass bath containing Krebs solution maintained at 32 °C. The rate of the spontaneously beating right atrium (via an isometric tranducer and a ratemeter) and the tension of the electrically paced left atrium (via an isometric transducer) are recorded on an M19 chart recorder.
After an initial stabilization period, the tissues are exposed to a maximal concentration of isoprenaline (10^-6M). The tissues are then washed several times until rate and tension return to baseline level. A dose-response curve to the test compound is then carried out.

For `COC(=O)c1ccc(C[C@@H](C)N(C[C@H](O)COc2ccccc2)C[C@H](O)c2ccccc2)cc1` [Example 4, Methyl 4-[(R)-2-[N-[(R)-2-hydroxy-2-phenethyl]-N-[(S)-2-hydroxy-3-phenoxypropyl]amino]propyl]benzoate, hydrochloride, monohydrate], in the experiment with Female CD1 mice, the “Mean Energy Expenditure (0-3h)” value amounted to 145 percentage and the “Mean Energy Expenditure (0-21h)” value was 120 percentage. Further, in the experiment on Male Sprague-Dawley rats, the “Mean Energy Expenditure (0-3h)” value is given as 110 percentage and the “Mean Energy Expenditure (0-21h)” value is reported as 119 percentage. In the experiment on Isolated Rat Atria, the “effect on tension (electrically paced left atrium)” value was “no effect” and the “effect on rate (spontaneously beating right atrium)” value is on record as “no effect”. Besides, the “Percentage reduction in weight of parametrial fat pads compared with controls” value in the experiment with Female BALB/c mice amounted to 25 Percentage. Moreover, the “% Reduction in Area under Blood Glucose Curve” value with Female CFLP mice is listed as 12%.

Take `CCOC(=O)COc1ccc(C[C@@H](C)N(C[C@H](O)COc2ccccc2)C[C@H](O)c2ccccc2)cc1` [Example 15, Ethyl 4-[(R)-2-[N-[(R)-2-hydroxy-2-phenethyl]-N-[(S)-2-hydroxy-3-phenoxypropyl]amino]propyl]phenoxyacetate, hydrochloride]: in the experiment on Female CD1 mice, the “Mean Energy Expenditure (0-3h)” value was 144 percentage and the “Mean Energy Expenditure (0-21h)” value was found to be 120 percentage. In the experiment with Male Sprague-Dawley rats, the “Mean Energy Expenditure (0-3h)” value worked out at 135 percentage and the “Mean Energy Expenditure (0-21h)” value turned out to be 118 percentage. In addition, in the experiment on Isolated Rat Atria, the “effect on tension (electrically paced left atrium)” value was “no effect” and the “effect on rate (spontaneously beating right atrium)” value is “no effect”. Moreover, in the experiment with Female BALB/c mice, the “Percentage reduction in weight of parametrial fat pads compared with controls” value was determined as 32 Percentage. Moreover, in the experiment on Female CFLP mice, the “% Reduction in Area under Blood Glucose Curve” value is listed as 42%.
